Source: patent US20260166039A1 (SCHRÖDINGER, INC., priority 2022, published 2026)
pIC50: −log10 of the molar value.

molecular target: T1, Wee1 kinase domain (Homo sapiens, UniProt P30291); experiment: Wee1 Kinase Biochemical Assay (ADP-Glo); settings: 1 nM Wee1 enzyme, 15 uM ATP, 4 hours at 25° C
T1 construct: Wee1 kinase domain was purchased from Carna (catalog #05-177); purchased Carna 05-177
Procedure, shortened: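 Carna Wee1 kinase domain at 1 nM, with 15 uM ATP and 2 ng/mL poly(Lys,Tyr 4:1) substrate in 40 mM Tris-HCl, 20 mM MgCl2, 0.1 mg/mL BSA, 2 mM DTT, run 4 h at 25° C. ADP formation read by ADP-Glo luminescence. Percent inhibition normalised to DMSO and saturating-inhibitor controls.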

T1 sequence (P30291 299-569 limits assumed): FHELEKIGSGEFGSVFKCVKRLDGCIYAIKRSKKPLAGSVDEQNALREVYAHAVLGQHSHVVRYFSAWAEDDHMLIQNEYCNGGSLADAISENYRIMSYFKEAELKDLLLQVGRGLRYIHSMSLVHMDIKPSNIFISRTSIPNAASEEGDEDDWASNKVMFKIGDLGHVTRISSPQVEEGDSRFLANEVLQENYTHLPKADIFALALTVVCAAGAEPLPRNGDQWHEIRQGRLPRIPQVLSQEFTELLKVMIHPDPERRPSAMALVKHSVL

| Compound | pIC50 |
| --- | --- |
| CC(C)n1ccc(Nc2ncc3c(n2)N(c2cccc(N=S(C)(C)=O)n2)[C@@H]2CC(C)(C)OC[C@]32C)n1 (single isomer, unassigned) [Example 832] | > 8.00 |
| CN1CCN(c2ccc(Nc3ncc4c(n3)N(c3cccnn3)[C@@H]3CC(C)(C)OC[C@]43C)cc2)CC1 (single isomer, unassigned) [Example 828] | > 8.00 |

same assay, conditions: Wee1 kinase domain, 15 uM ATP, ADP-Glo

| Compound | pIC50 |
| --- | --- |
| CNCc1cccc(N2c3nc(Nc4cnn(C(C)(C)C)c4)ncc3[C@]3(C)COC(C)(C)C[C@H]23)n1 (single isomer, unassigned) [Example 47] | 6.00 to 7.00 |
| CNCc1cccc(N2c3nc(Nc4ccc([C@H]5CCCO5)cc4)ncc3[C@]3(C)COC(C)(C)C[C@H]23)n1 (single isomer, unassigned) [Example 58] | ≤ 6.00 |
| CNCc1cccc(N2c3nc(Nc4ccccc4)ncc3[C@]3(C)COC(C)(C)C[C@H]23)n1 (single isomer, unassigned) [Example 46] | 7.00 to 8.00 |
| CN1C[C@H]2C[C@@H]1CN2c1ccc(Nc2ncc3c(n2)N(c2cccc(N=S(C)(C)=O)n2)[C@H]2CC(C)(C)OC[C@@]32C)cc1F (single isomer, unassigned) [Example 175] | 6.00 to 7.00 |
| CN1CC[C@](C)(c2ccc(Nc3ncc4c(n3)N(c3cccc(N=S(C)(C)=O)n3)[C@H]3CC(C)(C)OC[C@@]43C)cc2)C1 (single isomer, unassigned) [Example 167] | 7.00 to 8.00 |
| C[C@H]1COC(=O)N1c1cccc(N2c3nc(Nc4ccc(O[C@H]5CCN(C)C5)cc4)ncc3[C@]3(C)COC(C)(C)C[C@H]23)n1 (single isomer, unassigned) [Example 332] | 7.00 to 8.00 |
| CN1C[C@@H]2C[C@H]1CN2c1ccc(Nc2ncc3c(n2)N(c2cccc(N=S(C)(C)=O)n2)[C@H]2CC(C)(C)OC[C@@]32C)cc1 (single isomer, unassigned) [Example 123] | 6.00 to 7.00 |
| C[C@H]1COC(=O)N1c1cccc(N2c3nc(N)ncc3[C@@]3(C)COC(C)(C)C[C@@H]23)n1 (single isomer, unassigned) [Example 356] | 7.00 to 8.00 |
| CN1CCC(c2ccc(Nc3ncc4c(n3)N(c3cccc(N=S(C)(C)=O)n3)[C@H]3CC(C)(C)OC[C@@]43C)cn2)CC1 (single isomer, unassigned) [Example 139] | 6.00 to 7.00 |
| CC1(C)C[C@@H]2N(c3cccc(N=S(C)(C)=O)n3)c3nc(Nc4ccc([C@]5(C)CCNC5)cc4)ncc3[C@]2(C)CO1 (single isomer, unassigned) [Example 172] | 7.00 to 8.00 |
| Cc1cc(Nc2ncc3c(n2)N(c2cccc(N4C(=O)OC[C@@H]4C)n2)[C@H]2CC(C)(C)OC[C@@]32C)ccc1[C@H]1CCNC1 (single isomer, unassigned) [Example 266] | 7.00 to 8.00 |
| C[C@H]1COC(=O)N1c1cccc(N2c3nc(Nc4ccc(N5CCNCC5)cc4)ncc3[C@]3(C)COC(C)(C)C[C@H]23)n1 (single isomer, unassigned) [Example 261] | 7.00 to 8.00 |
| CN1CC[C@H](c2ccc(Nc3ncc4c(n3)N(c3cccc(N=S(C)(C)=O)n3)[C@H]3CC(C)(C)OC[C@@]43C)cc2)C1 (single isomer, unassigned) [Example 134] | 6.00 to 7.00 |
| C[C@H]1COC(=O)N1c1cccc(N2c3nc(Nc4cn(C5CCN(C)CC5)nn4)ncc3[C@]3(C)COC(C)(C)C[C@H]23)n1 (single isomer, unassigned) [Example 252] | 6.00 to 7.00 |
| CN1CC[C@H](Oc2ccc(Nc3ncc4c(n3)N(c3cccc(N=S(C)(C)=O)n3)[C@H]3CC(C)(C)OC[C@@]43C)cc2)C1 (single isomer, unassigned) [Example 158] | 6.00 to 7.00 |

same assay, conditions: class symbols; 1 nM Wee1 enzyme, 15 uM ATP, 4 hours at 25° C.

| Compound | pIC50 |
| --- | --- |
| CNCc1cccc(N2c3nc(Nc4ccc(=O)n(C)c4)ncc3[C@@]3(C)COC(C)(C)C[C@@H]23)n1 (single isomer, unassigned) [Example 462] | 7.00 to 8.00 |
| CN1C[C@H]2C[C@@H]1CN2c1ccc(Nc2ncc3c(n2)N(c2cccc(N4CCOC4=O)n2)[C@H]2CC(C)(C)OC[C@@]32C)cc1F [Example 669, 3-(6-((4bS,8aS)-2-((3-fluoro-4-((1R,4R)-5-methyl-2,5-diazabicyclo[2.2.1]heptan-2-yl)phenyl)amino)-4b,7,7-trimethyl-4b,7,8,8a-tetrahydropyrano[3′,4′:4,5]pyrrolo[2,3-d]pyrimidin-9(5H)-yl)pyridin-2-yl)oxazolidin-2-one] | 7.00 to 8.00 |
| CC1(C)C[C@H]2N(c3cccc(N=S(C)(C)=O)n3)c3nc(Nc4ccn(C5CCC5)c(=O)c4)ncc3[C@@]2(C)CO1 (single isomer, unassigned) [Example 802] | > 8.00 |
| CC1(C)C[C@@H]2N(c3cccc(N4CCOC4=O)n3)c3nc(Nc4ccc([C@@H]5CNC[C@@H]5F)cc4)ncc3[C@]2(C)CO1 [Example 674, 3-(6-((4bS,8aS)-2-((4-((3R,4R)-4-fluoropyrrolidin-3-yl)phenyl)amino)-4b,7,7-trimethyl-4b,7,8,8a-tetrahydropyrano[3′,4′:4,5]pyrrolo[2,3-d]pyrimidin-9(5H)-yl)pyridin-2-yl)oxazolidin-2-one] | 7.00 to 8.00 |
| Cn1ncc(Nc2ncc3c(n2)N(c2cccc(N=S(C)(C)=O)n2)[C@@H]2CC(C)(C)OC[C@]32C)n1 (single isomer, unassigned) [Example 515] | > 8.00 |
| Cc1cc(Nc2ncc3c(n2)N(c2cccc(N4CCOC4=O)n2)[C@H]2CC(C)(C)OC[C@@]32C)ccc1N1C[C@H]2C[C@@H]1CN2C [Example 661, 3-(6-((4bS,8aS)-4b,7,7-trimethyl-2-((3-methyl-4-((1R,4R)-5-methyl-2,5-diazabicyclo[2.2.1]heptan-2-yl)phenyl)amino)-4b,7,8,8a-tetrahydropyrano[3′,4′:4,5]pyrrolo[2,3-d]pyrimidin-9(5H)-yl)pyridin-2-yl)oxazolidin-2-one] | 7.00 to 8.00 |
| CC[C@]1(O)CCc2ccc(N3c4nc(Nc5ccn(C6CCN(C)CC6)c(=O)c5)ncc4[C@@]4(C)COC(C)(C)C[C@@H]34)nc21 [Example 811, 4-(((4bR,8aR)-9-((S)-7-ethyl-7-hydroxy-6,7-dihydro-5H-cyclopenta[b]pyridin-2-yl)-4b,7,7-trimethyl-4b,5,7,8,8a,9-hexahydropyrano[3′,4′:4,5]pyrrolo[2,3-d]pyrimidin-2-yl)amino)-1-(1-methylpiperidin-4-yl)pyridin-2(1H)-one] | > 8.00 |
| CN1CCN(c2ccc(Nc3ncc4c(n3)N(c3cccc(N5CCOC5=O)n3)[C@H]3CC(C)(C)OC[C@@]43C)cc2)CC1 (single isomer, unassigned) [Example 576] | 6.00 to 7.00 |
| CC1(C)C[C@@H]2N(c3cccc([C@H]4CCNC4)n3)c3nc(Nc4ccc(N5CCOCC5)cc4)ncc3[C@]2(C)CO1 (single isomer, unassigned) [Example 540] | 7.00 to 8.00 |
| CN1CC[C@H](OC(=O)Nc2ncc3c(n2)N(c2cccc(N=S(C)(C)=O)n2)[C@@H]2CC(C)(C)OC[C@]32C)C1 (single isomer, unassigned) [Example 773] | 7.00 to 8.00 |
| CN[C@@H](C)c1cc(C)nc(N2c3nc(Nc4ccc(N5CCOCC5)cc4)ncc3[C@]3(C)COC(C)(C)C[C@H]23)c1 (single isomer, unassigned) [Example 559] | ≤ 6.00 |
| CNCc1cccc(N2c3nc(Nc4ccc([C@H]5CCNC5)cc4)ncc3[C@]3(C)COC(C)(C)C[C@H]23)n1 (single isomer, unassigned) [Example 451] | 6.00 to 7.00 |
| CNCc1cccc(N2c3nc(Nc4ccc(N5CCN(C)CC5)c(C)c4)ncc3[C@]3(C)COC(C)(C)C[C@H]23)n1 (single isomer, unassigned) [Example 447] | 6.00 to 7.00 |
